By Ki is commonly meant a dissociation constant, usually derived from enzyme kinetics or from competition with a known ligand.

Experiment [1] deals with human Adenosine A2a receptor (Homo sapiens (Human), UniProt P29274). The experiment is described as follows: Adenosine receptor TR-FRET binding assay (A2a). As to conditions: inhibition of binding of 100 nM CA200645; CHO cell membranes; Ki from IC50 by Cheng and Prusoff. On the procedure: (§1) All FRET binding experiments were conducted at room temperature in white 384-well plates, in assay binding buffer containing 1× LabMed (Cisbio, France), 100 μg/mL saponin, 1% DMSO and 0.02% pluronic acid. Binding of the fluorescently labelled Adenosine receptor antagonist XAC (CA200645, FRET acceptor) to terbium-labelled A1, A2a, A2b and A3 adenosine receptors (FRET donors) was detected by time-resolved FRET due to the close proximity of the donor and acceptor in a binding event. To investigate the ability of unlabelled test compounds to bind to Adenosine A1, A2a, A2b and A3 receptors, dose response curves were constructed that determined the ability of a range of concentrations to inhibit the binding of 30 nM CA200645 to the A2b receptor and 100 nM CA200645 to the A1, A2a, and A3 receptor.
human Adenosine A2a receptor, sequence (P29274 whole entry): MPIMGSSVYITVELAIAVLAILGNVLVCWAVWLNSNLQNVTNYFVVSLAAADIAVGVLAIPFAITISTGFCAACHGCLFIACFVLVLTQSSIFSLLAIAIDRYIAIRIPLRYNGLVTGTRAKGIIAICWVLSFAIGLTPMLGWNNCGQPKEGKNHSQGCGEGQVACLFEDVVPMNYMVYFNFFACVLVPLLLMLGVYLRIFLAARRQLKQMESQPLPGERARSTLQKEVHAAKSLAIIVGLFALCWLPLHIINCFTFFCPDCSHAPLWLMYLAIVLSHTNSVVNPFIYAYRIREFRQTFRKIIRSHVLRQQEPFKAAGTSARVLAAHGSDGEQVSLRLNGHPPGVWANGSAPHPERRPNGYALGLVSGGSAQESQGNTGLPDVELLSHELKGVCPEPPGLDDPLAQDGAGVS
(§2) Serial dilution (1:3 dilutions) of test compounds in neat DMSO and transfer of a 400 nL sample of test compound into the assay plate was carried out using the Mosquito (TTP Labtech, UK). The compound samples were incubated for 2 hours at room temperature with a fixed concentration of CA200645 defined for each receptor (see above) and CHO cell membranes containing the human Adenosine A1 (0.5 μg/well), A2a (0.3 μg/well), A2b (1 μg/well) or A3 (1 μg/well) receptor in 40 μL of assay buffer. Total and non-specific binding of CA200645 was determined in the absence and presence of 10 μM XAC, respectively. Following 2 hours incubation, the level of CA200645 binding was detected on a Pherastar FSX (BMG Labtech, Germany) using standard TR-FRET settings. The terbium donor was excited with three laser flashes at a wavelength of 337 nm, and donor and acceptor emission was detected at 620 nm and 665 nm wavelengths, respectively. FRET ratios were obtained by multiplying the acceptor/donor ratio value by 10,000. Specific binding was determined by subtracting the non-specific binding FRET ratio from the total binding FRET ratio. Compound IC50 curves were analysed using GraphPad Prism 7.0 (GraphPad, USA) and Ki affinity values were determined from the obtained IC50 values using the method of Cheng and Prusoff.
For orientation: Time-resolved FRET reads energy transfer from a long-lived donor to a nearby acceptor.

Experiment [2] concerns the target human Adenosine A1 receptor (Homo sapiens (Human), UniProt P30542). The experiment is described as follows: Adenosine receptor TR-FRET binding assay (A1). As to conditions: inhibition of binding of 100 nM CA200645; CHO cell membranes; Ki from IC50 by Cheng and Prusoff. How it is done:
as §1, §2

The target in experiment [3] is human Adenosine A3 receptor (Homo sapiens (Human), UniProt P0DMS8). The experiment is described as follows: Adenosine receptor TR-FRET binding assay (A3). As to conditions: inhibition of binding of 100 nM CA200645; CHO cell membranes; Ki from IC50 by Cheng and Prusoff. On the procedure:
as §1, §2

Experiment [4] has as its target human Adenosine A2b receptor (Homo sapiens (Human), UniProt P29275). The experiment is described as follows: Adenosine receptor TR-FRET binding assay (A2b). As to conditions: inhibition of binding of 30 nM CA200645; CHO cell membranes; Ki from IC50 by Cheng and Prusoff. How it is done: as §1, §2

human Adenosine A3 receptor, sequence (P0DMS8 whole entry): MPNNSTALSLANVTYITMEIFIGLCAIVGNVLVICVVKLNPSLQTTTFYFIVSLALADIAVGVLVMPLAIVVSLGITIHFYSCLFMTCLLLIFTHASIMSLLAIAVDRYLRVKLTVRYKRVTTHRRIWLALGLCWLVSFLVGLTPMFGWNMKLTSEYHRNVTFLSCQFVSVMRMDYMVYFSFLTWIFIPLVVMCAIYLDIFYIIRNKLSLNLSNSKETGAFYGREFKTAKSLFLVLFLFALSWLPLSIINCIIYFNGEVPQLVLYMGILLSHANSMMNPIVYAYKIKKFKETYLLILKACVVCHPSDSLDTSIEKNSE
human Adenosine A1 receptor, sequence (P30542 whole entry): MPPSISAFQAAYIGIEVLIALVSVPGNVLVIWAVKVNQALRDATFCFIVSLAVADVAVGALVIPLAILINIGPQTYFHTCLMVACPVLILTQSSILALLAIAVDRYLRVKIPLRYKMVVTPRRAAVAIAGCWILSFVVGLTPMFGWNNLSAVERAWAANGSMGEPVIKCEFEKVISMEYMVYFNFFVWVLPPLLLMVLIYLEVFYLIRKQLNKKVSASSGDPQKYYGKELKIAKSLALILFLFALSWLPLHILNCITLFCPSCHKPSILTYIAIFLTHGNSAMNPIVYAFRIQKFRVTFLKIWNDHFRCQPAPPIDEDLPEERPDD
human Adenosine A2b receptor, sequence (P29275 whole entry): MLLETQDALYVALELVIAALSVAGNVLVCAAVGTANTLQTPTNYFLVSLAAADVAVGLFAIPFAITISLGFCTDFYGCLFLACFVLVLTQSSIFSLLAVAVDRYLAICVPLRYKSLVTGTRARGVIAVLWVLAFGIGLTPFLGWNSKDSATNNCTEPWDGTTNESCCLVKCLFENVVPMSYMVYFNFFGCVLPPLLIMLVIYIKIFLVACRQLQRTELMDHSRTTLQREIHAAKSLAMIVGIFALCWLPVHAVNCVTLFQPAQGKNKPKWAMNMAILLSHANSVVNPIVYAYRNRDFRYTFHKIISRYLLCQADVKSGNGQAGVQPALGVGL

For `Cc1ncnc2ccc(-c3sc(NC(=O)N4CC[C@@](C)(C#N)C4)nc3-c3cccc(C#N)c3)cc12` [Example 7.1, (3R)-3-Cyano-N-[4-(3-cyanophenyl)-5-(4-methylquinazolin-6-yl)thiazol-2-yl]-3-methyl-pyrrolidine-1-carboxamide], the Ki in experiment [1] is 36.9 nM; in experiment [2], 121 nM; in experiment [3] it was 828 nM; in experiment [4], 0.9 nM.

In the case of `N#Cc1cccc(-c2nc(NC(=O)N3CC4(COC4)C3)sc2-c2ccc3ncoc3c2)c1` [Example 35, N-[5-(1,3-benzoxazol-6-yl)-4-(3-cyanophenyl)thiazol-2-yl]-2-oxa-6-azaspiro[3.3]heptane-6-carboxamide], the Ki turned out to be 1.4 nM in experiment [1], 1.6 nM in experiment [2], 130 nM in experiment [3] and 1.6 nM in experiment [4].

In the case of `Cc1cc(-c2sc(NC(=O)N3CC4(COC4)C3)nc2-c2cccc(C#N)c2)c2cc[nH]c2n1` [Example 34, N-[4-(3-Cyanophenyl)-5-(6-methyl-1H-pyrrolo[2,3-b]pyridin-4-yl)thiazol-2-yl]-2-oxa-6-azaspiro[3.3]heptane-6-carboxamide], the inhibitory constant (Ki) in experiment [1] was found to be 7.4 nM; in experiment [2] it was 290 nM; in experiment [3], 260 nM; in experiment [4] it was 7.6 nM.

For `N#Cc1cccc(-c2nc(NC(=O)N3CC4(COC4)C3)sc2-c2c[nH]c3ncccc23)c1` [Example 17, N-[4-(3-Cyanophenyl)-5-(1H-pyrrolo[2,3-b]pyridin-3-yl)thiazol-2-yl]-2-oxa-6-azaspiro[3.3]heptane-6-carboxamide], the Ki in experiment [1] worked out at 3.11 nM; in experiment [2], 1 nM; in experiment [3] it was 305 nM; in experiment [4], 0.8 nM.

Consider `Cn1cnc2ccc(-c3sc(NC(=O)N4CC5(COC5)C4)nc3-c3cccc(C#N)c3)cc21` [Example 25, N-[4-(3-Cyanophenyl)-5-(3-methylbenzimidazol-5-yl)thiazol-2-yl]-2-oxa-6-azaspiro[3.3]heptane-6-carboxamide], for which the inhibition constant (Ki) is 0.07 nM in experiment [1], 0.3 nM in experiment [2], 1730 nM in experiment [3] and 0.5 nM in experiment [4].

As to `Cc1cc(-c2sc(NC(=O)N3CC4(COC4)C3)nc2-c2cccc(C#N)c2)cnn1` [Example 31, N-[4-(3-Cyanophenyl)-5-(6-methylpyridazin-4-yl)thiazol-2-yl]-2-oxa-6-azaspiro[3.3]heptane-6-carboxamide], the Ki was 4.31 nM in experiment [1], 57 nM in experiment [2], 1180 nM in experiment [3] and 38.7 nM in experiment [4].

On to `Cc1cc(-c2sc(NC(=O)N3CC4(COC4)C3)nc2-c2cccc(C#N)c2)cc2[nH]nnc12` [Example 2.3, N-[4-(3-Cyanophenyl)-5-(7-methyl-3H-benzotriazol-5-yl)thiazol-2-yl]-2-oxa-6-azaspiro[3.3]heptane-6-carboxamide], for which the inhibition constant (Ki) in experiment [1] is 1.37 nM; in experiment [2], 1 nM; in experiment [3], 466 nM; in experiment [4], 1.7 nM.

Regarding `Cn1ccc2c(-c3sc(NC(=O)N4CC5(COC5)C4)nc3-c3cccc(C#N)c3)ccnc21` [Example 21, N-[4-(3-Cyanophenyl)-5-(1-methylpyrrolo[2,3-b]pyridin-4-yl)thiazol-2-yl]-2-oxa-6-azaspiro[3.3]heptane-6-carboxamide], the Ki in experiment [1] was found to be 8.33 nM; in experiment [2] it was 4 nM; in experiment [3] it was 421 nM; in experiment [4] it was 2.6 nM.

On to `N#Cc1cccc(-c2nc(NC(=O)N3CC4(COC4)C3)sc2-c2ccnc3[nH]ccc23)c1` [Example 2.4, N-[4-(3-Cyanophenyl)-5-(1H-pyrrolo[2,3-b]pyridin-4-yl)thiazol-2-yl]-2-oxa-6-azaspiro[3.3]heptane-6-carboxamide], for which the Ki in experiment [1] was determined as 1 nM; in experiment [2] it was 1 nM; in experiment [3], 290 nM; in experiment [4], 0.5 nM.

On to `Cc1cc(-c2sc(NC(=O)N3CC4(COC4)C3)nc2-c2cccc(C#N)c2)cc2cn[nH]c12` [Example 27, N-[4-(3-Cyanophenyl)-5-(7-methyl-1H-indazol-5-yl)thiazol-2-yl]-2-oxa-6-azaspiro[3.3]heptane-6-carboxamide], for which the inhibitory constant (Ki) was found to be 0.08 nM in experiment [1], 0.5 nM in experiment [2], 907 nM in experiment [3] and 2.9 nM in experiment [4].

Regarding `Cc1cc(-c2sc(NC(=O)N3CC4(COC4)C3)nc2-c2cccc(C#N)c2)cn2c(C)cnc12` [Example 18, N-[4-(3-Cyanophenyl)-5-(3,8-dimethylimidazo[1,2-a]pyridin-6-yl)thiazol-2-yl]-2-oxa-6-azaspiro[3.3]heptane-6-carboxamide], the Ki is 0.11 nM in experiment [1], 1 nM in experiment [2], 2630 nM in experiment [3] and 0.9 nM in experiment [4].

With `Cc1cc(-c2sc(NC(=O)N3CC4(COC4)C3)nc2-c2cccc(C#N)c2)c2cn[nH]c2n1` [Example 2.5, N-[4-(3-Cyanophenyl)-5-(6-methyl-1H-pyrazolo[3,4-b]pyridin-4-yl)thiazol-2-yl]-2-oxa-6-azaspiro[3.3]heptane-6-carboxamide], the Ki in experiment [1] amounted to 3.3 nM; in experiment [2], 14 nM; in experiment [3], 2600 nM; in experiment [4] it was 0.9 nM.

Take `N#Cc1cccc(-c2nc(NC(=O)N3CC4(COC4)C3)sc2-c2ccc3nccn3c2)c1` [Example 26, N-[4-(3-Cyanophenyl)-5-imidazo[1,2-a]pyridin-6-yl-thiazol-2-yl]-2-oxa-6-azaspiro[3.3]heptane-6-carboxamide]: the inhibition constant (Ki) in experiment [1] amounted to 0.33 nM; in experiment [2], 0.3 nM; in experiment [3] it was 904 nM; in experiment [4], 0.5 nM.

On to `Cc1cc(-c2sc(NC(=O)N3CC4(COC4)C3)nc2-c2cccc(C#N)c2)cc2[nH]ncc12` [Example 2.2, N-[4-(3-Cyanophenyl)-5-(4-methyl-1H-indazol-6-yl)thiazol-2-yl]-2-oxa-6-azaspiro[3.3]heptane-6-carboxamide], for which the Ki in experiment [1] was found to be 2.69 nM; in experiment [2], 2 nM; in experiment [3], 820 nM; in experiment [4], 3.3 nM.

As to `Cc1cnc2ccc(-c3sc(NC(=O)N4CC5(COC5)C4)nc3-c3cccc(C#N)c3)cn12` [Example 22, N-[4-(3-Cyanophenyl)-5-(3-methylimidazo[1,2-a]pyridin-6-yl)thiazol-2-yl]-2-oxa-6-azaspiro[3.3]heptane-6-carboxamide], the Ki worked out at 0.15 nM in experiment [1], 0.4 nM in experiment [2], 2550 nM in experiment [3] and 1.4 nM in experiment [4].

As for `Cc1cc(-c2sc(NC(=O)N3CC4(COC4)C3)nc2-c2cccc(C#N)c2)cnc1-n1nccn1` [Example 32, N-[4-(3-Cyanophenyl)-5-[5-methyl-6-(triazol-2-yl)-3-pyridyl]thiazol-2-yl]-2-oxa-6-azaspiro[3.3]heptane-6-carboxamide], the inhibitory constant (Ki) in experiment [1] turned out to be 8.87 nM; in experiment [2], 272 nM; in experiment [3], 103 nM; in experiment [4], 136 nM.

(Values after patent US20250243194A1, “ANTAGONIST OF ADENOSINE RECEPTORS” (AdoRx Therapeutics Limited, priority 2022, published 2025).)
